This assay has as its system Caco2/KITENIN-V5 cells. The assay is described as follows: Autophagosome staining (Cyto-ID) in Caco2/KITENIN-V5 cells. The format is cell-based. The following applies: KDIP 5 μM, similar to rapamycin positive control. The procedure:
To test whether KDIP induces autophagy in KITENIN‐expressing Caco2 cells, cells were grown on coverslips for 24 h. Cells were washed with PBS and then stained with Cyto‐ID green fluorescence reagents (Enzo Life Sciences, Plymouth Meeting, PA) for 1 h at 37°C in a cell culture incubator. Cells were washed with PBS and mounted with […] mounting medium containing nuclear DAPI (Vector Lab). Cells were imaged by confocal microscope.
FIGURE 3 RACK1 binds to KAI1 C‐terminal interacting tetraspanin (KITENIN) and KITENIN dimerization‐interfering peptide (KDIP) stimulates the degradation of KITENIN by inducing increased binding of RACK1 to KITENIN. (A) RACK1 specifically binds to KITENIN. Caco2/KITENIN‐V5 cells were transfected with RACK1‐GFP for 48 h, immunoprecipitated with anti‐GFP antibody and immunoblotted with anti‐V5 antibody to detect KITENIN bound with RACK1 (left panel). […] The proteins in whole‐cell lysate (WCL) were detected with the indicated antibody. […] Caco2 cells were transfected with KITENIN‐V5 and/or RACK1‐GFP (left) or KITENIN‐V5 and/or si‐RACK1 (right), and their expression after treatment with KDIP (1 μM, 24 h) was detected with the indicated antibody (upper) or subjected to invasion assay (lower). […] Caco2/KITENIN‐V5 cells were treated with KDIP for 24 h and assessed by immunoblot analyses using an anti‐KITENIN, an anti‐p62, or an anti‐LC3B antibody (left panel). […]

Ends that are not written are not given here.

As to YARVRRRGPRRWRLVSDEAV [KDIP], the “formation of the autophagosome (in words)” value is listed as “increased”.

For the origin of these results see PMC9296036, “A peptide interfering with the dimerization of oncogenic KITENIN protein and its stability suppresses colorectal tumour progression” (Clinical and Translational Medicine, 2022).
